Among the data in patent US8354403B2, “Pyrrolidine derived beta 3 adrenergic receptor agonists” (Merck Sharp & Dohme Corp., priority 2009, dated 2013) are EC50 values, retold here.

One experiment deals with T1, human β3 adrenergic receptor (Homo sapiens, UniProt P13945).
T1 construct: expressed in transfected cells; host or cells: Chinese hamster ovary (CHO) cells, stably transfected
T1 sequence (P13945 whole entry): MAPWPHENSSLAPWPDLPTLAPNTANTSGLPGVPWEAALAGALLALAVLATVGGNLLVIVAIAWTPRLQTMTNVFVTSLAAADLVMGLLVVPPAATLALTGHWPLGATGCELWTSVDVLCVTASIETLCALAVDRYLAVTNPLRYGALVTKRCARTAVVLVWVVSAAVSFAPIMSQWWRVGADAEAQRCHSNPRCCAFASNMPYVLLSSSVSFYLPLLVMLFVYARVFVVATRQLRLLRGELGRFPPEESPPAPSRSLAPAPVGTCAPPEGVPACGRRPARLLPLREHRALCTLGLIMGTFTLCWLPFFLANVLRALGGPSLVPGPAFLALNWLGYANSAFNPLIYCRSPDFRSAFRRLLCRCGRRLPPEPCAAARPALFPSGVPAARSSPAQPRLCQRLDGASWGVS
Briefly: Beta-3 agonist in vitro functional assay: cAMP production (LANCE TR-FRET) in CHO cells stably transfected with the cloned β3 receptor. Format: cell-based. To be noted: Table 4; cAMP, CHO cells; read-out: Human β3 agonist functional activity. The method, boiled down:
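CHO cells stably expressing the cloned receptor, in HEPES-buffered HBSS with BSA and 0.6 mM IBMX, 6,000 cells/well, exposed to compound for 30 min at RT. cAMP read by LANCE TR-FRET against a cAMP standard curve. Isoproterenol defines maximal stimulation.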
(cAMP levels reflect the balance of adenylyl cyclase and phosphodiesterase activity.)
Turning to `C[C@H]1CN(C(=O)c2ccc(C[C@@H]3CC[C@H]([C@H](O)c4ccccc4)N3)cc2)CC[C@@H]1n1cccn1` [Example 62], the EC50 fell in the range of 100 to 999 nM.
Turning to `O=C(c1ccc(C[C@@H]2CC[C@H]([C@H](O)c3cccnc3)N2)cc1)N1CCC2Oc3ccccc3OC2C1` (some centres unmarked) [Example 59], the EC50 lay within 10 to 99.9 nM.

The experiment is the same for the next values; noted with them: Table 5; cAMP, CHO cells; read-out: Human β3 agonist functional activity.
With `CC(C1CCN(C(=O)c2ccc(C[C@@H]3CC[C@H]([C@H](O)c4ccccc4)N3)cc2)CC1)n1ncccc1=O` (some centres unmarked) [Example 165], the EC50 was 10 to 99.9 nM.

The same experiment, now with this note: Table 8; Beta-3 agonist in vitro functional assay; read-out: Human β3 agonist functional activity.
As for `O=C(c1ccc(C[C@@H]2CC[C@H]([C@H](O)c3ccccc3)N2)cc1)N1CCC(c2ccccc2)(c2nnn[nH]2)CC1` [Example 242], the EC50 lay in the range of 10 to 99.9 nM.
As to `O=C1C=C(c2ccccc2)C2(CCN(C(=O)c3ccc(C[C@@H]4CC[C@H]([C@H](O)c5ccccc5)N4)cc3)CC2)O1` [Example 281], the EC50 is 1 to 9.9 nM.
For the compound `COc1ccc2c(c1)C(=O)CC1(CCN(C(=O)c3ccc(C[C@@H]4CC[C@H]([C@H](O)c5cccnc5)N4)cc3)CC1)S2` [Example 329], the EC50 lay in the range of 10 to 99.9 nM.
Same read-out and setting: the value for `O=C(c1ccc(C[C@@H]2CC[C@H]([C@H](O)c3ccccc3)N2)cc1)N1CCC2(CCc3cnoc32)CC1` [Example 322] was 10 to 99.9 nM; that for `O=C(c1ccc(C[C@@H]2CC[C@H]([C@H](O)c3ccccc3)N2)cc1)N1CCC2(CC1)C(=O)NCC2c1ccc(C(F)(F)F)cc1` (some centres unmarked) [Example 263] was under 1 nM; that for `O=C(c1ccc(C[C@@H]2CC[C@H]([C@H](O)c3ccccc3)N2)cc1)N1CCC2(CC1)c1ccccc1CS2(=O)=O` [Example 302] was 10 to 99.9 nM.
`O=C(c1ccc(C[C@@H]2CC[C@H]([C@H](O)c3ccccc3)N2)cc1)N1CCC2(CC1)C(=O)NCC2c1ccccc1` (some centres unmarked) [Example 261]: the EC50 is under 1 nM.
For the compound `O=C(c1ccc(C[C@@H]2CC[C@H]([C@H](O)c3ccccc3)N2)cc1)N1CCC2(CCc3cn[nH]c32)CC1` [Example 321], the EC50 fell in the range of 100 to 999 nM.

Still in this experiment, the particulars now being: Table 9; Beta-3 agonist in vitro functional assay; read-out: Human β3 agonist functional activity.
For `O=C(O)c1cccnc1N1CCN(C(=O)c2ccc(C[C@@H]3CC[C@H]([C@H](O)c4ccccc4)N3)cc2)CC1` [Example 365], the EC50 was 100 to 999 nM.
Consider `Cn1nnc(CN2CCN(C(=O)c3ccc(C[C@@H]4CC[C@H]([C@H](O)c5ccccc5)N4)cc3)CC2)n1` [Example 401], for which the EC50 is 10 to 99.9 nM.
Same read-out and setting: the value for `O=C(c1ccc(C[C@@H]2CC[C@H]([C@H](O)c3ccccc3)N2)cc1)N1CCN(Cc2ccncn2)CC1` [Example 427] was 10 to 99.9 nM.

The experiment is the same for the next values; noted with them: Table 10; Beta-3 agonist in vitro functional assay; read-out: Human β3 agonist functional activity.
For the compound `COC1CN(C(=O)C(C)N2CCN(C(=O)c3ccc(C[C@@H]4CC[C@H]([C@H](O)c5ccccc5)N4)cc3)CC2)C1` (some centres unmarked) [Example 473], the EC50 lay in the range of 10 to 99.9 nM.
The same measure, in the same setting: the value for `CC(C(=O)N1CCC(F)CC1)N1CCN(C(=O)c2ccc(C[C@@H]3CC[C@H]([C@H](O)c4ccccc4)N3)cc2)CC1` (some centres unmarked) [Example 491] was 10 to 99.9 nM; that for `CC(C(=O)NCC1CCC1)N1CCN(C(=O)c2ccc(C[C@@H]3CC[C@H]([C@H](O)c4ccccc4)N3)cc2)CC1` (some centres unmarked) [Example 452] was 1 to 9.9 nM.
Consider `CC(C(=O)NC1CCNC1=O)N1CCN(C(=O)c2ccc(C[C@@H]3CC[C@H]([C@H](O)c4ccccc4)N3)cc2)CC1` (some centres unmarked) [Example 458], for which the EC50 was 100 to 999 nM.

The same experiment, now with this note: Table 11; cAMP, CHO cells; read-out: Human β3 agonist functional activity.
Turning to `C[C@@H](c1ccccn1)N1C2CCC1CN(C(=O)c1ccc(C[C@@H]3CC[C@H]([C@H](O)c4ccccc4)N3)cc1)C2` [Example 540], the EC50 is 100 to 999 nM.

The experiment is the same for the next values; noted with them: Table 12; human β3 functional activity given as ranges; read-out: Human β3 agonist functional activity.
As for `CC(c1ncccn1)N1CCN(C(=O)c2ccc(CC3CCC(C(O)c4ccccc4)N3)cc2)CC1` (single isomer, unassigned) [Example 595], the EC50 lay in the range of 10 to 99.9 nM.
`CC(c1ncccn1)N1CCN(C(=O)c2ccc(CC3CCC(C(O)c4ccccc4)N3)cc2)CC1` (single isomer, unassigned) [Example 596]: the EC50 is 10 to 99.9 nM.
As to `CC(c1ccn(C)n1)N1CCN(C(=O)c2ccc(CC3CCC(C(O)c4ccccc4)N3)cc2)CC1` (single isomer, unassigned) [Example 578], the EC50 lay in the range of 100 to 999 nM.
For the compound `O=C1CC(c2ccccc2)C2(CCN(C(=O)c3ccc(CC4CCC(C(O)c5cccnc5)N4)cc3)CC2)O1` (single isomer, unassigned) [Example 560], the EC50 fell in the range of 1 to 9.9 nM.
